Each structure is given as a SMILES string.

A short description of data set [1]: free and bound Vancomycin fractions by SPE extraction and Gibbs reaction colorimetry. It is filed as in vitro ADME. Conditions: commercially available whole human serum spiked with 29 μM Vancomycin, absorbance at 589 nm, n=3, error = standard deviation. As to the method:
A 1 ml whole serum sample (WHS) spiked with Vancomycin is applied to a 30 mg/1 ml reversed phase Strata™-X (polystyrene-divinylbenzene-N-vinylpyrrolidone copolymer) SPE column from Phenomenex (Torrance, Calif.). The column is washed firstly with 2 ml water to remove weakly bound impurities. This washing step may be repeated if necessary. Then a known volume (1 ml) of an organic solvent such as, but not limited to, methanol is used to elute the free Vancomycin fraction from the sorbent. This optionally may be followed by another organic washing step, e.g. another washing step with an organic solvent, which may be the same solvent or a different solvent as used in the elution step. The bound Vancomycin fraction is then eluted from the SPE column using a known volume (0.5 ml) of a mixture of one-third water and two-thirds methanol (by volume).
A 350 μl fraction of each elute is then transferred into separate vials. Then 50 μl of 3.625 mM Gibbs in methanol is added to each vial, followed by 40 μl of 0.4 M sodium hydroxide in borate buffer or water, which initiates the coupling reaction and results in an immediate colour change. After a shake, typically 350 μl of each mixture is transferred into a cuvette and their spectra are measured via a spectrophotometer. […]

The conditions of data set [2]: Zeitlinger et al. 2011, cited from earlier work.

As for `CN[C@H](CC(C)C)C(=O)N[C@H]1C(=O)N[C@@H](CC(N)=O)C(=O)N[C@H]2C(=O)N[C@H]3C(=O)N[C@H](C(=O)N[C@H](C(=O)O)c4cc(O)cc(O)c4-c4cc3ccc4O)[C@H](O)c3ccc(c(Cl)c3)Oc3cc2cc(c3O[C@@H]2O[C@H](CO)[C@@H](O)[C@H](O)[C@H]2O[C@H]2C[C@](C)(N)[C@H](O)[C@H](C)O2)Oc2ccc(cc2Cl)[C@H]1O` [Vancomycin], in data set [1] (methanol elute), the “percentage of Vancomycin free” value was 63±12%. Also, the “percentage of Vancomycin bound” value in data set [1] (water/methanol (1:2) elute) is 37±2%. In addition, the mean fraction bound in data set [2] (often quoted mean) is 55%. In addition, in data set [2] (range of protein binding), the “protein bound (variation)” value is given as 10-82%.

Values taken from patent US10591496B2, “Analyte extraction apparatus and method” (Sphere Medical Limited, priority 2013, dated 2020).
